Values joined by “and” are separate entries in the source; they are usually repeats but may differ in a detail not shown here. Equal entries are not always repeated.

Consider nine compounds from PubChem BioAssay AID624133 (Broad Institute, 2012).

The assay concerns Clone20-Shn3RL cells, Renilla luciferase luminescence, 24 h. Description: control 3'UTR Renilla luciferase suppression, dose response, counter-screen for Shn3 inhibitor project, cell-based, Clone20-Shn3RL, cherry-picked (AID 624133).
Take `CC(=O)OCC12CC(OC(=O)CC(C)C)C(C)=CC1OC1C(O)C(OC(C)=O)C2(C)C12CO2` (centres undefined): the concentration at half-maximal activity (AC50) is below 0.26 µM.
`CC(=O)OC[C@]12CCC(C)=C[C@H]1O[C@@H]1[C@H](O)[C@@H](OC(C)=O)[C@@]2(C)[C@]12CO2`: the AC50 was below 0.26 µM.
The figure for `CC(=O)OC1C(=O)OCC23CCC4(C)OC4C2OC2CC(OC(=O)C=CC=CC(=O)OCCC1C)C3(C)C21CO1` (centres undefined) is below 0.26 µM.
Regarding `CC(=O)OC1CC2OC3C=C(C)CCC3(C)C1(C)C21CO1` (centres undefined), the AC50 is 3.25 µM.
With `CCN1CCN(Cc2ccc(NC(=O)c3cc(NC(=O)c4cc5cccc(OC)c5o4)cc(OC)c3)cc2C(F)(F)F)CC1`, the AC50 was 25.1 µM and 9.12 µM.
For `C[C@H]1[C@@H](OS(=O)(=O)O)C[C@@H]2C[C@H]([C@@H](O)c3cc(=O)[nH]c(=O)[nH]3)NC3=NC[C@H]1N32`, the AC50 is 3.1 µM.
On to `CC1=CC2OC3CC4OC(=O)C=CC=CC(C(C)O)OCC(O)C5(C)OC5C(=O)OCC2(CC1O)C4(C)C31CO1` (centres undefined), for which the AC50 is below 0.26 µM.
As for `CC1=CC2OC3CC4OC(=O)C=CC=CC(=O)OCCC(C)C(O)C(=O)OCC2(CC1O)C4(C)C31CO1` (centres undefined), the concentration at half-maximal activity (AC50) is 4.79 µM.
The figure for `CC1=CC2OC3CC4OC(=O)C=CC=CC(C(C)O)OCC(O)C(C)CC(=O)OCC2(CC1O)C4(C)C31CO1` (centres undefined) is below 0.26 µM.
